ChEMBL document CHEMBL3603753, “Carbamoyl Triazoles, Known Serine Protease Inhibitors, Are a Potent New Class of Antimalarials” (J Med Chem, 2015)

The compounds below were run on Plasmodium falciparum (assay: Antimalarial activity against Plasmodium falciparum 3D7 infected in erythrocytes incubated for 48 hrs by [3H]hypoxanthine incorporation assay).
Type: functional, organism-based
For `COc1ccc(CN(C(=O)n2cnc(S(=O)(=O)[C@@H]3C[C@H]4CC[C@@H]3C4)n2)C2CC2)cc1`, the IC50 was 1020 nM. In the case of `CN(C(=O)n1cnc(S[C@@H]2C[C@H]3CC[C@@H]2C3)n1)c1ccccc1`, the IC50 is reported as greater than 5000 nM. Compound `O=C(N1CCc2ccccc2C1)n1cnc(S(=O)(=O)[C@@H]2C[C@H]3CC[C@@H]2C3)n1` has an IC50 greater than 5000 nM. Work on `CC(C)N(C)C(=O)n1cnc(S(=O)(=O)C2C3CC4CC(C3)CC2C4)n1` (stereo not drawn) yielded an IC50 of 8 nM. `COc1ccc(CN(C)C(=O)n2cnc(S(=O)(=O)[C@@H]3C[C@H]4CC[C@@H]3C4)n2)c(OC)c1` showed an IC50 of 30 nM. With `CCN(C)C(=O)n1cnc(Sc2c(C)cc(C)cc2C)n1` the IC50 was 1900 nM. `Cc1nc(S(=O)(=O)[C@@H]2C[C@H]3CC[C@@H]2C3)nn1C(=O)N(C)C(C)C` was tested, and the IC50 was greater than 4000 nM. `O=C(N1CCCC1)n1cnc(SCc2ccccc2)n1` showed an IC50 of 1440 nM. Work on `CCCN(C)C(=O)n1cnc(S(=O)(=O)[C@@H]2C[C@H]3CC[C@@H]2C3)n1` yielded an IC50 of 145 nM. Compound `CN(C(=O)n1cnc(S(=O)(=O)[C@@H]2C[C@H]3CC[C@@H]2C3)n1)C(C)(C)C` has an IC50 greater than 5000 nM. With `CN(Cc1cccc(C#N)c1)C(=O)n1cnc(S(=O)(=O)[C@@H]2C[C@H]3CC[C@@H]2C3)n1` the IC50 was 3430 nM. Work on `CCN(C)C(=O)n1cnc(S(=O)(=O)c2c(C)cc(C)cc2C)n1` yielded an IC50 of 164 nM. `CCN(CC)C(=O)n1cnc(S(=O)(=O)[C@@H]2C[C@H]3CC[C@@H]2C3)n1` was tested, and the IC50 was 585 nM. With `CC(C)N(C)C(=O)n1cnc(S(=O)(=O)C2CCCCC2)n1` the IC50 was 28 nM. `COc1cccc(CN(C)C(=O)n2cnc(S(=O)(=O)[C@@H]3C[C@H]4CC[C@@H]3C4)n2)c1` showed an IC50 of 36 nM. Compound `CN(Cc1cccc(F)c1)C(=O)n1cnc(S(=O)(=O)[C@@H]2C[C@H]3CC[C@@H]2C3)n1` has an IC50 of 373 nM. `O=C(N1CCCCC1)n1cnc(S(=O)(=O)[C@@H]2C[C@H]3CC[C@@H]2C3)n1` gave an IC50 of 626 nM. `CC(=O)c1ccc(CN(C)C(=O)n2cnc(S(=O)(=O)[C@@H]3C[C@H]4CC[C@@H]3C4)n2)cc1` showed an IC50 of 50 nM. `CN(Cc1ccc(Cl)cc1)C(=O)n1cnc(S(=O)(=O)[C@@H]2C[C@H]3CC[C@@H]2C3)n1` gave an IC50 of 602 nM. For `CN(Cc1ccccc1Cl)C(=O)n1cnc(S(=O)(=O)[C@@H]2C[C@H]3CC[C@@H]2C3)n1`, the IC50 was 725 nM. Work on `CN(Cc1ccc(F)cc1)C(=O)n1cnc(S(=O)(=O)[C@@H]2C[C@H]3CC[C@@H]2C3)n1` yielded an IC50 of 197 nM. In the case of `CCN(CC)C(=O)n1cnc(S[C@@H]2C[C@H]3CC[C@@H]2C3)n1`, the IC50 is reported as 2240 nM. Work on `CN(C)C(=O)n1cnc(S(=O)(=O)[C@@H]2C[C@H]3CC[C@@H]2C3)n1` yielded an IC50 of 47 nM. Compound `CN(C)C(=O)n1cnc(S[C@@H]2C[C@H]3CC[C@@H]2C3)n1` has an IC50 of 141 nM. For `CN(Cc1ccccc1C(F)(F)F)C(=O)n1cnc(S(=O)(=O)[C@@H]2C[C@H]3CC[C@@H]2C3)n1`, the IC50 was 1260 nM. `CN(Cc1cccc(C(F)(F)F)c1)C(=O)n1cnc(S(=O)(=O)[C@@H]2C[C@H]3CC[C@@H]2C3)n1` showed an IC50 of 1860 nM. With `CN(Cc1ccc(S(C)(=O)=O)cc1)C(=O)n1cnc(S(=O)(=O)[C@@H]2C[C@H]3CC[C@@H]2C3)n1` the IC50 was 290 nM. With `CN(Cc1cccc(Cl)c1)C(=O)n1cnc(S(=O)(=O)[C@@H]2C[C@H]3CC[C@@H]2C3)n1` the IC50 was 307 nM. `CN(Cc1ccccc1F)C(=O)n1cnc(S(=O)(=O)[C@@H]2C[C@H]3CC[C@@H]2C3)n1` showed an IC50 of 180 nM. With `CN(Cc1ccc(C(F)(F)F)cc1)C(=O)n1cnc(S(=O)(=O)[C@@H]2C[C@H]3CC[C@@H]2C3)n1` the IC50 was 554 nM. Work on `CN(Cc1cccnc1)C(=O)n1cnc(S(=O)(=O)[C@@H]2C[C@H]3CC[C@@H]2C3)n1` yielded an IC50 of 86 nM. With `COc1ccc(CN(C(=O)n2cnc(S(=O)(=O)[C@@H]3C[C@H]4CC[C@@H]3C4)n2)C(C)C)cc1` the IC50 was 840 nM. Compound `CCN(C)C(=O)n1cnc(S(=O)(=O)[C@@H]2C[C@H]3CC[C@@H]2C3)n1` has an IC50 of 93 nM.
